Tests used:
Test in all cases: karenitecin treatment of PDX model
Assay type in all cases: in vivo
Parameters in all cases: key to Response: responder: responded to karenitecin treatment (AUC<0.5 and TGI>0.8); non_responder: did not respond to karenitecin treatment (AUC>0.5 and TGI<0.6)
Conditions in all cases: karenitecin treatment for two weeks
PDX GA3109 = system: PDX GA3109
Experimental: (§1) A cohort of 48 PDX models in 8 cancers were used in this study. Those models were subject to karenitecin treatment for two weeks. Both tumor growth inhibition (TGI) and median AUC (area under curve) ratio, a newly developed metric to evaluate drug efficacy, were calculated (Table 1). Those models can be divided into two categories according to TGI and median AUC ratio.

PDX LU1215 = system: PDX LU1215
Experimental: as §1

PDX GA0087 = system: PDX GA0087
Experimental: as §1

PDX CR1451 = system: PDX CR1451
Experimental: as §1

PDX LU2071 = system: PDX LU2071
Experimental: as §1

PDX CR2545 = system: PDX CR2545
Experimental: as §1

PDX CR2524 = system: PDX CR2524
Experimental: as §1

PDX GA0098 = system: PDX GA0098
Experimental: as §1

PDX LU1542 = system: PDX LU1542
Experimental: as §1

PDX CR1560 = system: PDX CR1560
Experimental: as §1

PDX ES2267 = system: PDX ES2267
Experimental: as §1

PDX LU1144 = system: PDX LU1144
Experimental: as §1

PDX LU0858 = system: PDX LU0858
Experimental: as §1

PDX OV0273 = system: PDX OV0273
Experimental: as §1

PDX LU1868 = system: PDX LU1868
Experimental: as §1

PDX LU6429 = system: PDX LU6429
Experimental: as §1

PDX LU1235 = system: PDX LU1235
Experimental: as §1

PDX CR2520 = system: PDX CR2520
Experimental: as §1

CC[C@@]1(O)C(=O)OCc2c1cc1n(c2=O)Cc2c-1nc1ccccc1c2CC[Si](C)(C)C [karenitecin] was tested. Which “Median AUC ratio” value (PDX GA3109) did it give?
Its value is 0.137.

What about the Response (PDX GA3109) of the same molecule?
Its Response is “responder”.

What about the TGI (PDX GA3109) of the same molecule?
Its TGI is 1.046.

And the “Median AUC ratio” value (PDX LU1215)?
The value was 0.232.

And the Response (PDX LU1215)?
The Response was “responder”.

And the TGI (PDX LU1215)?
Its TGI is 1.006.

What about the “Median AUC ratio” value (PDX GA0087) of the same molecule?
Its value is −1.097.

And the Response (PDX GA0087)?
The Response was “responder”.

What about the TGI (PDX GA0087) of the same molecule?
Its TGI is 1.316.

What about the “Median AUC ratio” value (PDX CR1451) of the same molecule?
Its value is 0.069.

And the Response (PDX CR1451)?
Its Response is “responder”.

What about the TGI (PDX CR1451) of the same molecule?
Its TGI is 1.173.

What about the “Median AUC ratio” value (PDX LU2071) of the same molecule?
Its value is 0.037.

And the Response (PDX LU2071)?
The Response was “responder”.

What about the TGI (PDX LU2071) of the same molecule?
Its TGI is 1.099.

And the “Median AUC ratio” value (PDX CR2545)?
Its value is 0.597.

And the Response (PDX CR2545)?
The Response was “non_responder”.

And the TGI (PDX CR2545)?
Its TGI is 0.379.

What about the “Median AUC ratio” value (PDX CR2524) of the same molecule?
The value was 0.333.

What about the Response (PDX CR2524) of the same molecule?
The Response was “responder”.

And the TGI (PDX CR2524)?
Its TGI is 1.120.

And the “Median AUC ratio” value (PDX GA0098)?
Its value is 0.512.

And the Response (PDX GA0098)?
The Response was “non_responder”.

What about the TGI (PDX GA0098) of the same molecule?
The TGI was 0.482.

And the “Median AUC ratio” value (PDX LU1542)?
Its value is −3.610.

And the Response (PDX LU1542)?
Its Response is “responder”.

And the TGI (PDX LU1542)?
The TGI was 1.195.

And the “Median AUC ratio” value (PDX CR1560)?
Its value is 0.397.

And the Response (PDX CR1560)?
The Response was “responder”.

What about the TGI (PDX CR1560) of the same molecule?
The TGI was 1.146.

What about the “Median AUC ratio” value (PDX ES2267) of the same molecule?
The value was −0.288.

And the Response (PDX ES2267)?
The Response was “responder”.

And the TGI (PDX ES2267)?
Its TGI is 1.240.

And the “Median AUC ratio” value (PDX LU1144)?
Its value is 1.056.

What about the Response (PDX LU1144) of the same molecule?
Its Response is “non_responder”.

What about the TGI (PDX LU1144) of the same molecule?
The TGI was 0.378.

And the “Median AUC ratio” value (PDX LU0858)?
Its value is 0.027.

What about the Response (PDX LU0858) of the same molecule?
The Response was “responder”.

What about the TGI (PDX LU0858) of the same molecule?
The TGI was 1.000.

And the “Median AUC ratio” value (PDX OV0273)?
Its value is −0.092.

What about the Response (PDX OV0273) of the same molecule?
Its Response is “responder”.

And the TGI (PDX OV0273)?
Its TGI is 1.052.

And the “Median AUC ratio” value (PDX LU1868)?
Its value is 0.915.

What about the Response (PDX LU1868) of the same molecule?
Its Response is “non_responder”.

And the TGI (PDX LU1868)?
Its TGI is 0.534.

And the “Median AUC ratio” value (PDX LU6429)?
Its value is 1.106.

What about the Response (PDX LU6429) of the same molecule?
Its Response is “non_responder”.

What about the TGI (PDX LU6429) of the same molecule?
Its TGI is 0.241.

And the “Median AUC ratio” value (PDX LU1235)?
Its value is −0.018.

And the Response (PDX LU1235)?
Its Response is “responder”.

And the TGI (PDX LU1235)?
Its TGI is 0.932.

What about the “Median AUC ratio” value (PDX CR2520) of the same molecule?
The value was 0.914.

What about the Response (PDX CR2520) of the same molecule?
The Response was “non_responder”.

And the TGI (PDX CR2520)?
The TGI was 0.288.

— patent US11339447B2, “System and method for determining Kareniticin sensitivity on cancer” (CROWN BIOSCIENCE, INC. (TAICANG), priority 2017, dated 2022)
